Source: article PMC12060211, “Development of Efficient Covalent Inactivators of a Fungal Aspartate Semialdehyde Dehydrogenase” (Drug Development Research, 2025)

The compounds below were run against T1, CalASADH (C. albicans ASADH, aspartate semialdehyde dehydrogenase) (Candida albicans, UniProt Q5ALM0) (assay: time-dependent inactivation, NADPH formation at […] nm, kobs = kinact[I]/(Ki+[I])). Conditions: covalent; irreversible inactivation; residual activity read at pH 8.6 with 0.3 mM L-aspartate-beta-semialdehyde, 20 mM phosphate, 1.5 mM NADP.
T1 construct: gene HOM2; catalytic Cys-156; PDB 3hsk used as docking model of the same protein; ATCC 10231 is only the growth-test strain
T1 sequence (Q5ALM0 1-365): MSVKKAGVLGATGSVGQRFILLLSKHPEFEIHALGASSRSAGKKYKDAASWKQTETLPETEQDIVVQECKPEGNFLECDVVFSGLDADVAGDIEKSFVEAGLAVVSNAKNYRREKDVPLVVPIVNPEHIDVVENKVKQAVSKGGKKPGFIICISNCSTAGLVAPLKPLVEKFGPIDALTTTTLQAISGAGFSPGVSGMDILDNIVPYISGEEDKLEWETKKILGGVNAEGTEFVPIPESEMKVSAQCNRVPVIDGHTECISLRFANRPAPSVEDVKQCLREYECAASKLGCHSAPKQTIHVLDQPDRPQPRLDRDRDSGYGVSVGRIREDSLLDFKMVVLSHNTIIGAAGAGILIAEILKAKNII
Type: biochemical
`CS(=O)(=O)/C=C/c1ccc(O)cc1` [compound 1, vinyl sulfone, R1 methyl, R2 1,4-phenol] was tested, and the KI (inactivation) was 538 ± 300 µM.
`CC(=O)Nc1ccc(/C=C/S(C)(=O)=O)cc1` [compound 2, vinyl sulfone, R1 methyl, R2 acetanilide] was tested, and the KI (inactivation) was 203 ± 83 µM.
`CS(=O)(=O)/C=C/c1ccc(C(N)=O)cc1` [compound 3, vinyl sulfone, R1 methyl, R2 benzamide] showed a KI (inactivation) of 531 ± 134 µM.
`CS(=O)(=O)/C=C/c1ccc(O)cn1` [compound 4, vinyl sulfone, R1 methyl, R2 5-hydroxy-2-pyridine] showed a KI (inactivation) of 0.61 ± 0.091 µM.
`CS(=O)(=O)/C=C/c1ccc([N+](=O)[O-])s1` [compound 5, vinyl sulfone, R1 methyl, R2 5-nitrothiophene] gave a KI (inactivation) of 2.1 ± 0.6 µM.
Compound `CS(=O)(=O)/C=C/c1ccnc2ccccc12` [compound 6, vinyl sulfone, R1 methyl, R2 4-quinoline] has a KI (inactivation) of 4.4 ± 0.89 µM.
`CS(=O)(=O)/C=C/c1ccc2ccccc2n1` [compound 7, vinyl sulfone, R1 methyl, R2 2-quinoline] gave a KI (inactivation) of 0.96 ± 0.24 µM.
In the case of `CS(=O)(=O)/C=C/c1cccc2cnccc12` [compound 8, vinyl sulfone, R1 methyl, R2 5-isoquinoline], the KI (inactivation) is reported as 0.65 ± 0.11 µM.
`O=S(=O)(/C=C/c1cccc2cnccc12)C1CC1` [compound 9, vinyl sulfone, R1 cyclopropyl, R2 5-isoquinoline] was tested, and the KI (inactivation) was 2.48 ± 0.41 µM.
`O=S(=O)(/C=C/c1ccncc1)c1ccccn1` [compound 10, vinyl sulfone, R1 2-pyridinyl, R2 4-pyridinyl] was tested, and the KI (inactivation) was 2.2 ± 0.18 µM.
`O=S(=O)(/C=C/c1ccncc1)N1CCOCC1` [compound 11, vinyl sulfonamide, R1 2-morpholino, R2 4-pyridinyl] was tested, and the KI (inactivation) was 1.17 ± 0.13 µM.
`CS(=O)(=O)/C=C/C(N)=O` [compound 12, sulfonyl acrylamide, R1 methyl, R2 amide] was tested, and the KI (inactivation) was 2.7 ± 0.62 µM.
In the case of `NC(=O)/C=C/S(=O)(=O)c1ccccc1` [compound 13, sulfonyl acrylamide, R1 phenyl, R2 amide], the KI (inactivation) is reported as 2.3 ± 0.32 µM.
`CS(=O)(=O)/C=C/C[C@H](N)C(=O)O` [compound 14, vinyl sulfone, R1 methyl, R2 alanyl] gave a KI (inactivation) of 7.6 ± 1.2 µM.
With `CN(C)S(=O)(=O)/C=C/C[C@H](N)C(=O)O` [compound 15, vinyl sulfonamide, R1 dimethylamino, R2 alanyl] the KI (inactivation) was 27.9 ± 4.3 µM.
For `N[C@@H](C/C=C/S(=O)(=O)Cc1ccccc1)C(=O)O` [compound 16, vinyl sulfone, R1 benzyl, R2 alanyl], the KI (inactivation) was 1.8 ± 0.82 µM.
Work on `CC(C)S(=O)(=O)/C=C/C[C@H](N)C(=O)O` [compound 17, vinyl sulfone, R1 isopropyl, R2 alanyl] yielded a KI (inactivation) of 0.76 ± 0.15 µM.
Work on `N[C@@H](C/C=C/S(=O)(=O)C1CC1)C(=O)O` [compound 18, vinyl sulfone, R1 cyclopropyl, R2 alanyl] yielded a KI (inactivation) of 0.39 ± 0.093 µM.
In the case of `CC(=O)CS(C)(=O)=O` [compound 19, sulfonyl ketone, R1 methyl, R2 methyl], the KI (inactivation) is reported as 31.7 ± 4.9 µM.
`CS(=O)(=O)CC(=O)c1ccncc1` [compound 20, sulfonyl ketone, R1 methyl, R2 4-pyridinyl] showed a KI (inactivation) of 59 ± 22 µM.
`CS(=O)(=O)CC(=O)c1cccnc1` [compound 21, sulfonyl ketone, R1 methyl, R2 3-pyridinyl] was tested, and the KI (inactivation) was 25.9 ± 6.6 µM.
`CS(=O)(=O)CC(=O)c1ccccn1` [compound 22, sulfonyl ketone, R1 methyl, R2 2-pyridinyl] was tested, and the KI (inactivation) was 6.08 ± 0.76 µM.
`CS(=O)(=O)CC(=O)c1ccccc1` [compound 23, sulfonyl ketone, R1 methyl, R2 phenyl] gave a KI (inactivation) of 2.2 ± 0.77 µM.
Compound `O=C(/C=C/c1ccncc1)N1CCOCC1` [compound 24, acrylamide, R1 morpholino, R2 4-pyridinyl] has a KI (inactivation) of 4.41 ± 0.85 µM.
Work on `NC(=O)/C=C/c1ccncc1` [compound 25, acrylamide, R1 amino, R2 4-pyridinyl] yielded a KI (inactivation) of 3.79 ± 1.6 µM.
